{"source": "patent US20050065118A1", "about": "“Organosulfur inhibitors of tyrosine phosphatases” (priority 2001, published 2005)", "data": [{"units": {"melting point": "°C"}, "values": [{"smiles": "Nc1nnc(-c2cccc(Oc3cccc(COc4ccc(Cl)c(Cl)c4)c3)c2)s1", "note": "[Example 158, (3,4-dichlorophenyl)(5-{3-[3-(oxymethyl)phenoxy]phenyl)(1,3,4-thiadiazol-2-yl))amine]", "melting point": "128 to 130"}, {"smiles": "CCOc1cccc(-c2nnc(Nc3cccc(Br)c3)s2)c1", "note": "[Example 74, (3-bromophenyl)[5-(3-ethoxyphenyl)(1,3,4-thiadiazol-2-yl)]amine]", "melting point": "195 to 197"}, {"smiles": "FC(F)(F)c1cccc(Oc2cccc(-c3nnc(Nc4ccc(Cl)c(Cl)c4)s3)c2)c1", "note": "[Example 154, (3,4-dichlorophenyl)(5-{3-[3-(trifluoromethyl)phenoxy]phenyl}(1,3,4-thiadiazol-2-yl))amine]", "melting point": "212 to 213"}, {"smiles": "Cc1ccc(Oc2cccc(-c3nnc(Nc4ccc(Cl)c(Cl)c4)s3)c2)cc1", "note": "[Example 151, (3,4-dichlorophenyl){5-[3-(4-methylphenoxy)phenyl](1,3,4-thiadiazol-2-yl)}amine]", "melting point": "210 to 211"}, {"smiles": "Oc1ccc(Oc2cccc(-c3nnc(Nc4ccc(Cl)c(Cl)c4)s3)c2)cc1", "note": "[Example 128, 4-(3-{-[(3,4-dichlorophenyl)amino]-1,3,4-thiadiazol-2-yl}phenoxy)phenol]", "melting point": "224 to 225.5"}, {"smiles": "Clc1ccc(Nc2nnc(-c3ccc4nonc4c3)s2)cc1Cl", "note": "[Example 162, (5-benzo[c]1,2,5-oxadiazol-5-yl(1,3,4-thiadiazol-2-yl))(3,4-dichlorophenyl)amine]", "melting point": "315 to 317"}, {"smiles": "Clc1ccc(Nc2nnc(-c3cc(OCc4ccccc4)cc(OCc4ccccc4)c3)s2)cc1Cl", "note": "[Example 160, (3,4-dichlorophenyl){5-[3,5-bis(phenylmethoxy)phenyl](1,3,4-thiadiazol-2-yl)}amine]", "melting point": "212 to 214"}, {"smiles": "CCOC(=O)c1ccc(Nc2nnc(-c3ccc(Oc4ccccc4)cc3)s2)cc1", "note": "[Example 123, ethyl 4-{[5-(4-phenoxyphenyl)-1,3,4-thiadiazol-2-yl]amino}benzoate]", "melting point": "206 to 207"}, {"smiles": "COc1ccc(CSc2cccc(Nc3nnc(-c4cccc([N+](=O)[O-])c4)s3)c2)cc1", "note": "[Example 41, {3-[(4-Methoxyphenyl)methylthio]phenyl}[5-(3-nitrophenyl)(1,3,4-thiadiazol-2-yl)]amine]", "melting point": "208 to 209"}, {"smiles": "Clc1ccc(Nc2nnc(-c3cccc(Oc4ccc(Cl)c(Cl)c4)c3)s2)cc1Cl", "note": "[Example 153, (3,4-dichlorophenyl)(5-[3-(3,4-dichlorophenoxy)phenyl](1,3,4-thiadiazol-2-yl)}amine]", "melting point": "189 to 190"}, {"smiles": "Clc1cc(Cl)cc(Oc2cccc(-c3nnc(Nc4ccc(Cl)c(Cl)c4)s3)c2)c1", "note": "[Example 152, (3,4-dichlorophenyl){5-[3-(3,5-dichlorophenoxy)phenyl](1,3,4-thiadiazol-2-yl)}amine]", "melting point": "242 to 243"}, {"smiles": "Clc1cc(Nc2nnc(-c3ccc4nonc4c3)s2)ccc1Br", "note": "[Example 122, (5-benzo[3,4-c]1,2,5-oxadiazol-5-yl(1,3,4-thiadiazol-2-yl))(4-bromo-3-chlorophenyl)amine]", "melting point": "326 to 327"}, {"smiles": "O=C(O)Cc1cccc(Oc2cccc(-c3nnc(Nc4ccc(Cl)c(Cl)c4)s3)c2)c1", "note": "[Example 127, 2-[3-(3-{5-[(3,4-dichlorophenyl)amino]-1,3,4-thiadiazol-2-yl}phenoxy)phenyl]acetic acid]", "melting point": "183 to 184"}, {"smiles": "COc1ccc(Oc2cccc(-c3nnc(Nc4ccc(Cl)c(Cl)c4)s3)c2)cc1", "note": "[Example 150, (3,4-dichlorophenyl)(5-[3-(4-methoxyphenoxy)phenyl](1,3,4-thiadiazol-2-yl)}amine]", "melting point": "198 to 199"}, {"smiles": "CCOc1cccc(-c2nnc(N(Cc3cccc([N+](=O)[O-])c3)c3ccc(Cl)c(Cl)c3)s2)c1", "note": "[Example 147, (3,4-dichlorophenyl)[5-(3-ethoxyphenyl)(1,3,4-thiadiazol-2-yl)][(3-nitrophenyl)methyl]amine]", "melting point": "114 to 115"}, {"smiles": "CCOc1cccc(-c2nnc(Nc3ccc(Br)c(C)c3)s2)c1", "note": "[Example 71, (4-bromo-3-methylphenyl)[5(3-ethoxyphenyl)(1,3,4-thiadiazol-2-yl)]amine]", "melting point": "201 to 202"}, {"smiles": "O=[N+]([O-])c1cccc(Oc2cccc(-c3nnc(Nc4ccc(Cl)c(Cl)c4)s3)c2)c1", "note": "[Example 126, (3,4-dichlorophenyl){5-[3-(3-nitrophenoxy)phenyl](1,3,4-thiadiazol-2-yl)}amine]", "melting point": "210.5 to 211.5"}, {"smiles": "CCOc1cccc(-c2nnc(Nc3ccc(F)c(Cl)c3)s2)c1", "note": "[Example 70, (3-chloro-4-fluorophenyl)[5-(3-ethoxyphenyl)(1,3,4-thiadiazol-2-yl)]amine]", "melting point": "170 to 172"}, {"smiles": "O=C(O)c1ccc(CNc2nnc(-c3cccc(Oc4ccccc4)c3)s2)cc1", "note": "[Example 166, 4-({[5-(3-phenoxyphenyl)-1,3,4-thiadiazol-2-yl]amino}methyl)benzoic acid]", "melting point": "192 to 195"}, {"smiles": "O=C(O)CCc1cccc(Oc2cccc(-c3nnc(Nc4ccc(Cl)c(Cl)c4)s3)c2)c1", "note": "[Example 9, 3-[3-(3-{5-[(3,4-Dichlorophenyl)amino]-1,3,4-thiadiazol-2-yl}phenoxy)phenyl]propanoic acid]", "melting point": "194 to 196"}, {"smiles": "O=C(O)c1ccc(CN(c2ccc(Cl)c(Cl)c2)c2nnc(-c3cccc(Oc4cccc(C(F)(F)F)c4)c3)s2)cc1", "note": "[Example 157, 4-{[(3,4-dichlorophenyl)(5-{3-[3-(trifluoromethyl)phenoxy]phenyl}-(1,3,4-thiadiazol-2-yl))amino]methyl}benzoic acid]", "melting point": "114 to 116"}, {"smiles": "O=[N+]([O-])c1cccc(-c2nnc(Nc3cccc(Br)c3)s2)c1", "note": "[Example 1, N2-(3-bromophenyl)-5-(3-nitrophenyl)-1,3,4-thiadiazol-2-amine]", "melting point": "273 to 275"}, {"smiles": "COc1cccc(-c2nnc(Nc3ccc(Br)c(Cl)c3)s2)c1", "note": "[Example 69, (4-bromo-3-chlorophenyl)[5-(3-methoxyphenyl)(1,3,4-thiadiazol-2-yl)]amine]", "melting point": "215 to 217"}, {"smiles": "CC(=NNc1ccc(C(=O)O)cc1)c1cccc(Nc2nnc(-c3cccc(Oc4cccc(C(F)(F)F)c4)c3)s2)c1", "note": "[Example 165, 4-{N′-[1-(3-{5-[3-(3-Trifluoromethyl-phenoxy)-phenyl]-[1,3,4]thiadiazol-2-ylamino}-phenyl)-ethylidene]-hydrazino}-benzoic acid]", "melting point": "277.5 to 279"}, {"smiles": "O=[N+]([O-])c1cccc(-c2nnc(Nc3cccc(Cl)c3Cl)s2)c1", "note": "[Example 76, (2,3-dichlorophenyl)[5-(3-nitrophenyl)(1,3,4-thiadiazol-2-yl)]amine]", "melting point": "240 to 242"}, {"smiles": "O=C(O)CCSC(c1cccc(-c2nnc(Nc3ccc(Cl)c(Cl)c3)s2)c1)c1cccc(C(F)(F)F)c1", "note": "(stereo not shown)", "melting point": "140 to 141"}, {"smiles": "O=[N+]([O-])c1ccccc1OCc1nnc(Nc2cccc(Br)c2)s1", "note": "[Example 36, (3-Bromophenyl){5-[(2-nitrophenoxy)methyl](1,3,4-thiadiazol-2-yl)}amine]", "melting point": "184 to 185"}, {"smiles": "FC(F)(F)Oc1cccc(COc2cccc(-c3nnc(Nc4ccc(Cl)c(Cl)c4)s3)c2)c1", "note": "[Example 129, (3,4-dichlorophenyl)[5-(3-{[3-(trifluoromethoxy)phenyl]methoxy}phenyl)(1,3,4-thiadiazol-2-yl)]amine]", "melting point": "166 to 167"}]}]}
